Data from the supplement of paper PMC10307832.

How the values were obtained:
Assay in all cases: relative viability (nuclei count vs DMSO), 5 days (fraction); higher = more cells survive
[1] = compound: OCc1c[nH]c2ccccc12 [Indole-3-carbinol]
Outline: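 Lung cancer cell lines were seeded into 1536-well plates, kept overnight at 37 °C and pinned with five library-drug doses (not always all listed) spaced by √10. After 5 days, nuclei were Hoechst-stained, imaged at 4× and counted with MetaXpress. Viability is treated-well nuclei over vehicle-well nuclei, taken as a median across plates. Plates needed control CV below 25% and at least one doubling.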

[2] = compound: OCc1c[nH]c2ccccc12 [Indole-3-carbinol] + Cc1nc(Nc2ncc(C(=O)Nc3c(C)cccc3Cl)s2)cc(N2CCN(CCO)CC2)n1 [Dasatinib] (partner 0.075 µM)
Outline: (§1)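 Relative viability was taken as the ratio of nuclei in treated wells to nuclei in vehicle wells. Lung cancer cell lines in 1536-well plates received compounds by pin tool one day after seeding, either one drug alone or a fixed anchor-drug dose plus five library-drug doses (not always all listed) in √10 steps. Nuclei were counted on 4× images after 5 days of treatment, and values are medians of duplicate plates.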

[3] = compound: OCc1c[nH]c2ccccc12 [Indole-3-carbinol] + O=C(c1cc(Cc2n[nH]c(=O)c3ccccc23)ccc1F)N1CCN(C(=O)C2CC2)CC1 [Olaparib] (partner 8 µM)
Outline: as §1

[4] = compound: OCc1c[nH]c2ccccc12 [Indole-3-carbinol] + C[C@@H](Oc1cc(-c2cnn(C3CCNCC3)c2)cnc1N)c1c(Cl)ccc(F)c1Cl [Crizotinib] (partner 1 µM)
Outline: as §1

[5] = compound: OCc1c[nH]c2ccccc12 [Indole-3-carbinol] + Cc1nc(NC(=O)N2CCC[C@H]2C(N)=O)sc1-c1ccnc(C(C)(C)C(F)(F)F)c1 [Alpelisib] (partner 2 µM)
Outline: as §1

ChaGo-K-1 was tested, and the relative viability ([1]; 0.253 µM) was 0.965, the relative viability ([1]; 0.8 µM) was 0.99 and the relative viability ([1]; 2.53 µM) was 0.893. For the same cell line, the relative viability ([1]; 8 µM) was 1, the relative viability ([2]; first compound 0.253 µM) was 0.583 and the relative viability ([2]; first compound 0.8 µM) was 0.568. For the same cell line, the relative viability ([2]; first compound 2.53 µM) was 0.709, the relative viability ([2]; first compound 8 µM) was 0.604 and the relative viability ([3]; first compound 0.253 µM) was 0.427. For the same cell line, the relative viability ([3]; first compound 0.8 µM) was 0.45, the relative viability ([3]; first compound 2.53 µM) was 0.415 and the relative viability ([3]; first compound 8 µM) was 0.387. The relative viability ([4]; first compound 0.253 µM) was 1.21, the relative viability ([4]; first compound 0.8 µM) was 1.04 and the relative viability ([4]; first compound 2.53 µM) was 1.18. It also gave a relative viability ([4]; first compound 8 µM) of 1.1.
With EKVX the relative viability ([1]; 0.253 µM) was 1.04, the relative viability ([1]; 0.8 µM) was 0.96 and the relative viability ([1]; 2.53 µM) was 0.999. For the same cell line, the relative viability ([1]; 8 µM) was 0.943, the relative viability ([2]; first compound 0.253 µM) was 0.564 and the relative viability ([2]; first compound 0.8 µM) was 0.54. It also gave a relative viability ([2]; first compound 2.53 µM) of 0.535, a relative viability ([2]; first compound 8 µM) of 0.67 and a relative viability ([3]; first compound 0.253 µM) of 0.797. It also gave a relative viability ([3]; first compound 0.8 µM) of 0.938, a relative viability ([3]; first compound 2.53 µM) of 0.851 and a relative viability ([3]; first compound 8 µM) of 0.85. It also gave a relative viability ([5]; first compound 0.253 µM) of 0.763, a relative viability ([5]; first compound 0.8 µM) of 0.973 and a relative viability ([5]; first compound 2.53 µM) of 0.9. It also gave a relative viability ([5]; first compound 8 µM) of 0.852, a relative viability ([4]; first compound 0.253 µM) of 1.09 and a relative viability ([4]; first compound 0.8 µM) of 1.24. The relative viability ([4]; first compound 2.53 µM) was 0.648 and the relative viability ([4]; first compound 8 µM) was 0.864.
For EMC-BAC-2, the relative viability ([1]; 0.253 µM) was 0.957, the relative viability ([1]; 0.8 µM) was 0.949 and the relative viability ([1]; 2.53 µM) was 1.05. The relative viability ([1]; 8 µM) was 0.912, the relative viability ([2]; first compound 0.253 µM) was 0.329 and the relative viability ([2]; first compound 0.8 µM) was 0.307. For the same cell line, the relative viability ([2]; first compound 2.53 µM) was 0.337, the relative viability ([2]; first compound 8 µM) was 0.312 and the relative viability ([3]; first compound 0.253 µM) was 0.493. For the same cell line, the relative viability ([3]; first compound 0.8 µM) was 0.51, the relative viability ([3]; first compound 2.53 µM) was 0.504 and the relative viability ([3]; first compound 8 µM) was 0.467. The relative viability ([5]; first compound 0.253 µM) was 0.715, the relative viability ([5]; first compound 0.8 µM) was 0.731 and the relative viability ([5]; first compound 2.53 µM) was 0.741. The relative viability ([5]; first compound 8 µM) was 0.665, the relative viability ([4]; first compound 0.253 µM) was 0.72 and the relative viability ([4]; first compound 0.8 µM) was 0.785. The relative viability ([4]; first compound 2.53 µM) was 0.794 and the relative viability ([4]; first compound 8 µM) was 0.666.
With EPLC-272H the relative viability ([1]; 0.253 µM) was 1.01, the relative viability ([1]; 0.8 µM) was 1.15 and the relative viability ([1]; 2.53 µM) was 0.9. It also gave a relative viability ([1]; 8 µM) of 0.906, a relative viability ([2]; first compound 0.253 µM) of 0.44 and a relative viability ([2]; first compound 0.8 µM) of 0.406. It also gave a relative viability ([2]; first compound 2.53 µM) of 0.403, a relative viability ([2]; first compound 8 µM) of 0.387 and a relative viability ([3]; first compound 0.253 µM) of 0.894. It also gave a relative viability ([3]; first compound 0.8 µM) of 0.993, a relative viability ([3]; first compound 2.53 µM) of 0.627 and a relative viability ([3]; first compound 8 µM) of 0.914. For the same cell line, the relative viability ([5]; first compound 0.253 µM) was 1.13, the relative viability ([5]; first compound 0.8 µM) was 0.94 and the relative viability ([5]; first compound 2.53 µM) was 0.931. It also gave a relative viability ([5]; first compound 8 µM) of 0.803, a relative viability ([4]; first compound 0.253 µM) of 0.997 and a relative viability ([4]; first compound 0.8 µM) of 1.14. It also gave a relative viability ([4]; first compound 2.53 µM) of 0.947 and a relative viability ([4]; first compound 8 µM) of 1.01.
H3255 gave a relative viability ([1]; 0.253 µM) of 0.924, a relative viability ([1]; 0.8 µM) of 0.953 and a relative viability ([1]; 2.53 µM) of 0.948. It also gave a relative viability ([1]; 8 µM) of 0.96, a relative viability ([2]; first compound 0.253 µM) of 0.346 and a relative viability ([2]; first compound 0.8 µM) of 0.456. It also gave a relative viability ([2]; first compound 2.53 µM) of 0.338, a relative viability ([2]; first compound 8 µM) of 0.321 and a relative viability ([3]; first compound 0.253 µM) of 0.589. The relative viability ([3]; first compound 0.8 µM) was 0.553, the relative viability ([3]; first compound 2.53 µM) was 0.617 and the relative viability ([3]; first compound 8 µM) was 0.552. The relative viability ([5]; first compound 0.253 µM) was 0.671, the relative viability ([5]; first compound 0.8 µM) was 0.741 and the relative viability ([5]; first compound 2.53 µM) was 0.675. It also gave a relative viability ([5]; first compound 8 µM) of 0.643, a relative viability ([4]; first compound 0.253 µM) of 0.865 and a relative viability ([4]; first compound 0.8 µM) of 0.817. The relative viability ([4]; first compound 2.53 µM) was 0.968 and the relative viability ([4]; first compound 8 µM) was 0.759.
With HARA the relative viability ([1]; 0.253 µM) was 0.96, the relative viability ([1]; 0.8 µM) was 0.894 and the relative viability ([1]; 2.53 µM) was 1.06. For the same cell line, the relative viability ([1]; 8 µM) was 0.889, the relative viability ([2]; first compound 0.253 µM) was 0.289 and the relative viability ([2]; first compound 0.8 µM) was 0.296. The relative viability ([2]; first compound 2.53 µM) was 0.323, the relative viability ([2]; first compound 8 µM) was 0.198 and the relative viability ([3]; first compound 0.253 µM) was 0.568. For the same cell line, the relative viability ([3]; first compound 0.8 µM) was 0.77, the relative viability ([3]; first compound 2.53 µM) was 0.331 and the relative viability ([3]; first compound 8 µM) was 0.701. It also gave a relative viability ([5]; first compound 0.253 µM) of 0.759, a relative viability ([5]; first compound 0.8 µM) of 0.808 and a relative viability ([5]; first compound 2.53 µM) of 0.93. For the same cell line, the relative viability ([5]; first compound 8 µM) was 0.773, the relative viability ([4]; first compound 0.253 µM) was 1.11 and the relative viability ([4]; first compound 0.8 µM) was 1.23. For the same cell line, the relative viability ([4]; first compound 2.53 µM) was 1.06 and the relative viability ([4]; first compound 8 µM) was 0.987.
Cell Line HCC-15 has a relative viability ([1]; 0.253 µM) of 1.14, a relative viability ([1]; 0.8 µM) of 0.999 and a relative viability ([1]; 2.53 µM) of 0.995. For the same cell line, the relative viability ([1]; 8 µM) was 0.973, the relative viability ([2]; first compound 0.253 µM) was 0.615 and the relative viability ([2]; first compound 0.8 µM) was 0.745. For the same cell line, the relative viability ([2]; first compound 2.53 µM) was 0.611, the relative viability ([2]; first compound 8 µM) was 0.607 and the relative viability ([3]; first compound 0.253 µM) was 0.722. It also gave a relative viability ([3]; first compound 0.8 µM) of 0.747, a relative viability ([3]; first compound 2.53 µM) of 0.684 and a relative viability ([3]; first compound 8 µM) of 0.685. It also gave a relative viability ([5]; first compound 0.253 µM) of 0.824, a relative viability ([5]; first compound 0.8 µM) of 0.986 and a relative viability ([5]; first compound 2.53 µM) of 0.987. It also gave a relative viability ([5]; first compound 8 µM) of 0.848, a relative viability ([4]; first compound 0.253 µM) of 0.79 and a relative viability ([4]; first compound 0.8 µM) of 0.879. It also gave a relative viability ([4]; first compound 2.53 µM) of 0.852 and a relative viability ([4]; first compound 8 µM) of 0.763.
For HCC-44, the relative viability ([1]; 0.253 µM) was 0.983, the relative viability ([1]; 0.8 µM) was 0.972 and the relative viability ([1]; 2.53 µM) was 0.954. The relative viability ([1]; 8 µM) was 0.96, the relative viability ([3]; first compound 0.253 µM) was 1 and the relative viability ([3]; first compound 0.8 µM) was 1.02. The relative viability ([3]; first compound 2.53 µM) was 0.966, the relative viability ([3]; first compound 8 µM) was 0.962 and the relative viability ([5]; first compound 0.253 µM) was 0.788. For the same cell line, the relative viability ([5]; first compound 0.8 µM) was 0.845, the relative viability ([5]; first compound 2.53 µM) was 0.851 and the relative viability ([5]; first compound 8 µM) was 0.773. It also gave a relative viability ([4]; first compound 0.253 µM) of 0.891, a relative viability ([4]; first compound 0.8 µM) of 0.946 and a relative viability ([4]; first compound 2.53 µM) of 0.913. It also gave a relative viability ([4]; first compound 8 µM) of 0.782.
